Measured values taken from paper PMC7549094 (Journal of Medicinal Chemistry, 2020).

Columns and labels:
hr GR ag = target: T1, hr GR ag (Homo sapiens, UniProt P04150); assay: receptor profile (Table S4); type: biochemical
T1 sequence (P04150 1-777): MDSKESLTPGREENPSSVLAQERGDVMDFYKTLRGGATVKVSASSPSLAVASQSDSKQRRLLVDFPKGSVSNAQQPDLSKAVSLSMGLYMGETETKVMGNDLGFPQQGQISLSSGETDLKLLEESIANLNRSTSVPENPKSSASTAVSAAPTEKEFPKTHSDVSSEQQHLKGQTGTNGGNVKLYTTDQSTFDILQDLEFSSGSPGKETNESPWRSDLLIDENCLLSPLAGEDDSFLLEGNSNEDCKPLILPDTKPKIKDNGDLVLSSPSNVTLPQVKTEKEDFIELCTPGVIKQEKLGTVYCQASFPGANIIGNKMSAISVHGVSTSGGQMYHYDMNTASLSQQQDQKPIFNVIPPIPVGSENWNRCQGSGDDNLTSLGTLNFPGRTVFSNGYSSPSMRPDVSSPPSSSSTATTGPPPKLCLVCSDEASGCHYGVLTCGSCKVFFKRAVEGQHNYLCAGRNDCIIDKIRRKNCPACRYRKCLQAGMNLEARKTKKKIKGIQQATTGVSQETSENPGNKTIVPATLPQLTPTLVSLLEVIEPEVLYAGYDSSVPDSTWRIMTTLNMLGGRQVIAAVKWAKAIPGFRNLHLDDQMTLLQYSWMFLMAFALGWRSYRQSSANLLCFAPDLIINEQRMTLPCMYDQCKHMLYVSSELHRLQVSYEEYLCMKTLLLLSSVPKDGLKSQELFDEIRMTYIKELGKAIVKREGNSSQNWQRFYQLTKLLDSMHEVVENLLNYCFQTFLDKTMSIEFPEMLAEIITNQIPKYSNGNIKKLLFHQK

hr PR antag = target: T2, hr PR antag (Homo sapiens, UniProt P06401); assay: receptor profile (Table S4); type: biochemical
T2 sequence (P06401 1-933): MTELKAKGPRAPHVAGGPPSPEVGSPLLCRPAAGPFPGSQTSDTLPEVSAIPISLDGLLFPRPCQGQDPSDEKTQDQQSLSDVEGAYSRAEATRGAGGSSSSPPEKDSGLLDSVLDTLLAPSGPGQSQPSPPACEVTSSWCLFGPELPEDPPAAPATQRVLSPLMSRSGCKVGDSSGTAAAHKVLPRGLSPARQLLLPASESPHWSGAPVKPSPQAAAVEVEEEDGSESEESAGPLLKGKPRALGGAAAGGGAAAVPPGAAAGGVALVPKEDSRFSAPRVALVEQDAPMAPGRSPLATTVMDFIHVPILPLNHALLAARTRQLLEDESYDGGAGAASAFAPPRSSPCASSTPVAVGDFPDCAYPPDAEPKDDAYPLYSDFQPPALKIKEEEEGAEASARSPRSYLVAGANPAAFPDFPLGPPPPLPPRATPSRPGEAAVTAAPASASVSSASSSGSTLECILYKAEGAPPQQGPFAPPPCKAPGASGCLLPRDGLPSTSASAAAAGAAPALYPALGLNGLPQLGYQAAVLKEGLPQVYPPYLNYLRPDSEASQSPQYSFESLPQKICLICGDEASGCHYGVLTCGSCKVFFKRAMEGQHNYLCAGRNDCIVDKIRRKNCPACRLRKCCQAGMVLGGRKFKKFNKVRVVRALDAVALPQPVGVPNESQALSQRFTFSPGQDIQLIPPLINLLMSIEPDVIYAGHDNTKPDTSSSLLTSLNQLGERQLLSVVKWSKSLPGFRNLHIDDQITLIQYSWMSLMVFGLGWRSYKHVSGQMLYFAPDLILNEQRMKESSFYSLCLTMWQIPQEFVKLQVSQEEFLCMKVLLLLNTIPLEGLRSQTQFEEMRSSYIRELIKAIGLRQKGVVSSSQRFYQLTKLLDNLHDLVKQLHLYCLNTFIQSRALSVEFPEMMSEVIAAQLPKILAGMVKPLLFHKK

hr 5-HT2B antag = hr 5-HT2B antag (Homo sapiens, UniProt P41595); assay: receptor profile (Table S4); type: biochemical
rr AR ag = target: T3, rr AR ag (Rattus norvegicus, UniProt P15207); assay: receptor profile (Table S4); type: biochemical
T3 sequence (P15207 1-902): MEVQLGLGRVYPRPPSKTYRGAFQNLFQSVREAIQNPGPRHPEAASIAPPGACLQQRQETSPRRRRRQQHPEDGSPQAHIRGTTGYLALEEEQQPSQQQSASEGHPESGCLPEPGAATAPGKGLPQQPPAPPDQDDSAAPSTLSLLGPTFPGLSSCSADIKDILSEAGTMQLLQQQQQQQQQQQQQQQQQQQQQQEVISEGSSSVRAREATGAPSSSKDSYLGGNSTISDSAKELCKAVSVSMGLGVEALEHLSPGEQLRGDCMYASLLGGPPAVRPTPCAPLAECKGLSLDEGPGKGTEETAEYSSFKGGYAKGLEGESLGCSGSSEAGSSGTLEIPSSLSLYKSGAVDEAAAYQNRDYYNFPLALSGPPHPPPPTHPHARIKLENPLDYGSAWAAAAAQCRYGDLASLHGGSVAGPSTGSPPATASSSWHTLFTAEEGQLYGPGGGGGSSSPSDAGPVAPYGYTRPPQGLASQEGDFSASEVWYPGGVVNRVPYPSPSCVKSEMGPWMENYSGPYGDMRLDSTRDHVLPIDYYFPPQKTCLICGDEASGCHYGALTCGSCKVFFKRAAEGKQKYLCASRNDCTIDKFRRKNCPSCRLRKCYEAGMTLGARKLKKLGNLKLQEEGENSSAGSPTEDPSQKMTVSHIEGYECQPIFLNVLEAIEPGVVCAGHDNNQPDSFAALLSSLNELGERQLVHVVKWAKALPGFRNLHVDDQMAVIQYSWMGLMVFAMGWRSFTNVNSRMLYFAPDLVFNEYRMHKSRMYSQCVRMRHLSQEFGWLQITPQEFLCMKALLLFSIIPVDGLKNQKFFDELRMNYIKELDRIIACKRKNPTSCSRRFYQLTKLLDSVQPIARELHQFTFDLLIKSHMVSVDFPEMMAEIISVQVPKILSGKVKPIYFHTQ

L. major = assay: BALB/c mouse lesion cure model of Old World cutaneous leishmaniasis; type: in vivo; conditions: BALB/c mice infected with L. major; 20 mg/kg b.i.d. PO, 10 days
Description: Data in the graph show progression of lesion sizes at the base of the tail of BALB/c mice infected with 1 × 10^7L. major parasites after 10 days of treatment. Experimental time points represent the mean lesion sizes ± SEM (n = 6). Single-factor ANOVA (Dunnet’s test) was used to determine the statistical significance of differences in lesion sizes between vehicle and compound-treated groups (P < 0.05).
Lesion cure model of Old World leishmaniasis (L. major). Female BALB/c mice (6 weeks old) were
used in this model. Mice were infected intradermally at base of the tail with 100 µl parasite culture
containing 1x107 L. major MHOM/IR/-/173 stationary phase promastigotes. Starting from the third week
post-infection, the lesion induration diameters (length=D1 and width=D2) were measured using a caliper
instrument (Fisher Scientific, USA) with 0.1 mm sensitivity. Length and width measurements were taken to account for asymmetrical lesions. Lesion size area was then calculated using the πR1*R2 formula
(where R1=D1/2 and R2 = D2/2). Lesions were measured at a 10 -day (+/- 2 days) interval until the end
of the study. Experimental endpoint is lesion cure or % lesion size re duction relative to lesion size in
vehicle-treated group. Lesion cure is considered 100% re-epithelialization of the lesion (lesion size = 0
10 mg/kg and 20 mg/kg twice-daily). In a positive control treatment group, animals were dosed by […]

BSEP = BSEP (Homo sapiens, UniProt O95342); assay: receptor profile (Table S4), first BSEP line
BSEP, sequence (O95342 whole entry): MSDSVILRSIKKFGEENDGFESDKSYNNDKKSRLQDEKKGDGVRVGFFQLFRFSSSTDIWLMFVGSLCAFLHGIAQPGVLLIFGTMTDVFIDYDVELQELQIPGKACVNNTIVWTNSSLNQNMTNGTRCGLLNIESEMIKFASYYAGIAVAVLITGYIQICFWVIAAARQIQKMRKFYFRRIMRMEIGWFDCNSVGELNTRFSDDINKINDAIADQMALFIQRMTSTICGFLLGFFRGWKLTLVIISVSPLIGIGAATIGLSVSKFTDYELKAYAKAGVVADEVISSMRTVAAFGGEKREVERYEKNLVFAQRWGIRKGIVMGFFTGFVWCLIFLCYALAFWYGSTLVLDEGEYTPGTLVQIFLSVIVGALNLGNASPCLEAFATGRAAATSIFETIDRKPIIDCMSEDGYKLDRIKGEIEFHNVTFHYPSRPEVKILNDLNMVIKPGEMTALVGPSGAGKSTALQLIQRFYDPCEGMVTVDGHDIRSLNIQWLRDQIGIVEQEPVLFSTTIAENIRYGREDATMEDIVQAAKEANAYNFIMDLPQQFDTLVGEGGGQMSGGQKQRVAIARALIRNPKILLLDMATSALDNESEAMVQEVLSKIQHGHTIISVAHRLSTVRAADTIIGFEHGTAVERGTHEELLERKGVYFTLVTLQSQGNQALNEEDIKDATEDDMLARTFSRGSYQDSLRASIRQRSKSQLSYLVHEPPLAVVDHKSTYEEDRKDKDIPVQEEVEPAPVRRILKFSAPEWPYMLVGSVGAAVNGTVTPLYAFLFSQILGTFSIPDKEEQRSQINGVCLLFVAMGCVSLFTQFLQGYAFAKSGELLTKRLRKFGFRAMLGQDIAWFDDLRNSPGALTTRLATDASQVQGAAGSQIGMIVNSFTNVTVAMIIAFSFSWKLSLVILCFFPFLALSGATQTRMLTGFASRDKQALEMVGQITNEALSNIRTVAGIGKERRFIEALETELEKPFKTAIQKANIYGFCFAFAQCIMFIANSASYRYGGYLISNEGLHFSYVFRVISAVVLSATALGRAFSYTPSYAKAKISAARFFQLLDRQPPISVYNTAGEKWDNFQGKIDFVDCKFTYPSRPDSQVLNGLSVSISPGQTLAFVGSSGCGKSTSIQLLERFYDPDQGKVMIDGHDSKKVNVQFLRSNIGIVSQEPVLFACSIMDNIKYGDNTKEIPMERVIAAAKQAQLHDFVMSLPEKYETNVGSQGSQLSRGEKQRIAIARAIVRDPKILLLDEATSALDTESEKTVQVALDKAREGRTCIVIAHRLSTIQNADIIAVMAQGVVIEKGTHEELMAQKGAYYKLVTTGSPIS

hr 5-HT2B antag, sequence (P41595 whole entry): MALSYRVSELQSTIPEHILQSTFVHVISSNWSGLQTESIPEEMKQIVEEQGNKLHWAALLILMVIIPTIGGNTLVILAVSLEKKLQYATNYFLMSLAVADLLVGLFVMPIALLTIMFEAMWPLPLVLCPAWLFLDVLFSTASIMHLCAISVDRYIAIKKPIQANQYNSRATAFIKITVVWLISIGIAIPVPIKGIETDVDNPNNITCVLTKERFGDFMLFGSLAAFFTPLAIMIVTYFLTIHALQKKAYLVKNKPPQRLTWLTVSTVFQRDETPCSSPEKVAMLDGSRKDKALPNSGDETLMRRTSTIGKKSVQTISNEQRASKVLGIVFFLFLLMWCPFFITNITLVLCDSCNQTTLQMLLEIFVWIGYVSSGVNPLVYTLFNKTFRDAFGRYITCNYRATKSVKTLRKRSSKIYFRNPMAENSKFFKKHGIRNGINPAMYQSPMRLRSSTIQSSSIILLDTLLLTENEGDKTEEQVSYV

With `Cc1nc(C)c(C(=O)Nc2ccc(F)c(-c3nc4ncc(-c5ncccc5C)cn4n3)c2)o1` [compound 1, N-(4-Fluoro-3-(6-(3-methylpyridin-2-yl)-[1,2,4]triazolo[1,5-a]pyrimidin-2-yl)phenyl)-2,4-dimethyloxazole-5-carboxamide] as the compound, how does the EC50/IC50 (hr GR ag; hr GR ag) read?
Its EC50/IC50 is > 30 µM.

What about the inhibition at 10 µM (hr GR ag; read-out: % inh/act @ 10 µM) of the same compound?
The inhibition at 10 µM was -5%.

And the inhibition at 30 µM (hr GR ag; read-out: % inh/act @ 30 µM)?
The inhibition at 30 µM was -4%.

What about the “% inh/act @ 10 µM” value (hr GABAA ag) of the same compound?
The value was -11%.

And the “% inh/act @ 30 µM” value (hr GABAA ag)?
The value was -2%.

What about the EC50/IC50 (hr PR antag; hr PR antag) of the same compound?
Its EC50/IC50 is > 30 µM.

What about the inhibition at 10 µM (hr PR antag; read-out: % inh/act @ 10 µM) of the same compound?
Its inhibition at 10 µM is -11%.

What about the inhibition at 30 µM (hr PR antag; read-out: % inh/act @ 30 µM) of the same compound?
The inhibition at 30 µM was -5%.

What about the EC50/IC50 (hr 5-HT2B antag; hr 5-HT2B antag) of the same compound?
Its EC50/IC50 is > 30 µM.

What about the inhibition at 10 µM (hr 5-HT2B antag; read-out: % inh/act @ 10 µM) of the same compound?
Its inhibition at 10 µM is 22%.

And the inhibition at 30 µM (hr 5-HT2B antag; read-out: % inh/act @ 30 µM)?
The inhibition at 30 µM was 24%.

What about the inhibition at 10 µM (rr AR ag; read-out: % inh/act @ 10 µM) of the same compound?
The inhibition at 10 µM was 1%.

And the inhibition at 30 µM (rr AR ag; read-out: % inh/act @ 30 µM)?
Its inhibition at 30 µM is 0%.

What about the EC50/IC50 (rr AR ag; rr AR ag) of the same compound?
The EC50/IC50 was > 30 µM.

And the “therapeutic effect on skin lesions” value (L. major)?
The value was “comparable to that of liposomal amphotericin B”.

And the inhibition at 10 µM (BSEP)?
The inhibition at 10 µM was 28%.

And the inhibition at 30 µM (BSEP)?
Its inhibition at 30 µM is 45%.
